Assay results as given in publication PMC5096464 (Journal of the American Chemical Society, 2016).
Changes are numbered by the printed parent chain.

What was measured:
EcAP [1] = conditions: ref 39 and 57; cited from earlier work
T79S PafA = biological target: T1, T79S PafA (Elizabethkingia meningoseptica, UniProt Q9KJX5, T79S); assay: biochemical; conditions: pH 8.0, subsaturating me-pNPP
T1 sequence (Q9KJX5 26-546 T79S): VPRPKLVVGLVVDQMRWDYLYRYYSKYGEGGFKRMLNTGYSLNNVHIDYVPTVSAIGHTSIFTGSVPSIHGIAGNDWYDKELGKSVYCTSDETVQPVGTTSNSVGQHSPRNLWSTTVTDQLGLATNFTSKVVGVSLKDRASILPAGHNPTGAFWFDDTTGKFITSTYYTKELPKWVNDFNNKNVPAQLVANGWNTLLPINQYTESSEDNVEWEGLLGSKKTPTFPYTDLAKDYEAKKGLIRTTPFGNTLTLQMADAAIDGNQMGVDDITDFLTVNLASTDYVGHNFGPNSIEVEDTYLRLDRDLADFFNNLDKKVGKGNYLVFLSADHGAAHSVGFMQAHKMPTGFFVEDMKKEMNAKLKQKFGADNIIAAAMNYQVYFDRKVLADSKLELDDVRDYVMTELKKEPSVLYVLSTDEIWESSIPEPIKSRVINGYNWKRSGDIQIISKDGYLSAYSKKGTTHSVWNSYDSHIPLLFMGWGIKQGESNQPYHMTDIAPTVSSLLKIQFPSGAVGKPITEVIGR

R164A PafA = biological target: T2, R164A PafA (Elizabethkingia meningoseptica, UniProt Q9KJX5, R164A); assay: biochemical; conditions: pH 8.0, subsaturating me-pNPP
T2 sequence (Q9KJX5 26-546 R164A): T1 sequence (Q9KJX5 26-546 T79S) with S54T, R139A

K162A PafA = biological target: T3, K162A PafA (Elizabethkingia meningoseptica, UniProt Q9KJX5, K162A); assay: biochemical; conditions: pH 8.0, subsaturating me-pNPP
T3 sequence (Q9KJX5 26-546 K162A): T1 sequence (Q9KJX5 26-546 T79S) with S54T, K137A

EcAP [2] = conditions: EcAP vs PafA
N100A PafA = biological target: T4, N100A PafA (Elizabethkingia meningoseptica, UniProt Q9KJX5, N100A); assay: biochemical; conditions: pH 8.0, subsaturating me-pNPP
T4 sequence (Q9KJX5 26-546 N100A): T1 sequence (Q9KJX5 26-546 T79S) with S54T, N75A

WT PafA = biological target: T5, WT PafA (Elizabethkingia meningoseptica, UniProt Q9KJX5); assay: biochemical; conditions: pH 8.0, subsaturating me-pNPP
T5 sequence (Q9KJX5 26-546): T1 sequence (Q9KJX5 26-546 T79S) with S54T

| Structure (SMILES) | Ki (product inhibition) (EcAP [1]) | Ki (T79S PafA) [µM] | Ki (R164A PafA) [µM] | Ki (K162A PafA) [µM] | product inhibition of EcAP stronger than that for PafA (EcAP [2]) | Ki (N100A PafA) [µM] | Ki (WT PafA) [µM] |
| --- | --- | --- | --- | --- | --- | --- | --- |
| O=P(O)(O)O [Pi, inorganic phosphate] | low micromolar | 9.6 | > 13000 | 4700 | more than 3 orders of magnitude | 1300 | 830 |
| [O]=[W](=[O])([OH])[OH] [tungstate] |  | 280 | 1300 | > 13000 |  | 570 | 3.9 |
| [O]=[V]([OH])([OH])[OH] [vanadate] |  | 90 | 300 | 79 |  | 190 | 0.67 |
